# Target: T1, hDMT1 (SLC11A2) (Homo sapiens, UniProt P49281)
# T1 construct: DsRED; expressed in transfected cells
# T1 sequence (P49281 1-568): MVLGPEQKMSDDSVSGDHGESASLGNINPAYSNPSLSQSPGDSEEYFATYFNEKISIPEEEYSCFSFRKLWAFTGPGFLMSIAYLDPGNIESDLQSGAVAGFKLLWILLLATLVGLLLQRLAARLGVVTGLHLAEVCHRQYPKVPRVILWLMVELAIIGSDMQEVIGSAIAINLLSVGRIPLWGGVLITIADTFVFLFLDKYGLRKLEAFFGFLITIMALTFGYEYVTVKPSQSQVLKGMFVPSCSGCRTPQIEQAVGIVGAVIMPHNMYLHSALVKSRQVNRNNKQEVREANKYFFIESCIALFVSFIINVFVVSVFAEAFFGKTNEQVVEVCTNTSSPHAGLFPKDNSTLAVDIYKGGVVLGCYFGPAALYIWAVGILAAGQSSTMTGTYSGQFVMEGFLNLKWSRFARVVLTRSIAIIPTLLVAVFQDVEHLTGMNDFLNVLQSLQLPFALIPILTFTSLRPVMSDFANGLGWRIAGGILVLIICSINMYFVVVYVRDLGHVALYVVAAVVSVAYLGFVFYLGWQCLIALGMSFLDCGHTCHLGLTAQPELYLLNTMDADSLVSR
# Assay: radioactive iron uptake assay in HEK293 cells stably overexpressing hDMT1
# Type: cell-based
# Conditions: for Ligand efficiency: from IC50 of radioactive iron uptake in HEK293-hDMT1; for IC50: radioactive iron 1 μM, 15 min incubation, extracellular pH 5.5, HEK293 stably overexpressing hDMT1; for inhibition at 10 µM: HEK293, 10 μM compound, radioactive iron uptake, pH 5.5
Ligand efficiency,IC50 [µM],inhibition at 10 µM [%],SMILES
–,–,< 20,Cc1cc(=O)[nH]c(-n2nc3c(c2C)CNCC3)n1 [Compound 15]
0.45,3.8 ± 0.2,–,CCc1cc(CC)n(-c2nc(C)cc(=O)[nH]2)n1 [Compound 16]
0.42,2.26 ± 0.3,–,CCc1c2c(nn1-c1nc(C)cc(=O)[nH]1)CCCC2 [Compound 17]
0.42,0.94 ± 0.2,–,Cc1cc(=O)[nH]c(-n2nc3c4c2CCCC4CCC3)n1 (stereo not shown) [Compound 18]
0.43,12.5 ± 0.3,–,Cc1cc(C)n(-c2nc(C)c(C)c(O)n2)n1 [Compound 19]
–,–,< 20,Cc1cc(C)nc(-n2nc(C)cc2C)n1 [Compound 20]
–,–,< 20,CCc1cc(=O)n(-c2nc(C)cc(=O)[nH]2)[nH]1 [Compound 21]
–,–,< 20,Cc1cc(=O)[nH]c(-n2[nH]c(C)c(Cc3ccccc3)c2=O)n1 [Compound 22]
–,–,< 20,CCc1cc(=O)[nH]c(-n2[nH]c(C)cc2=O)n1 [Compound 24]
–,–,< 20,CCOC(=O)c1cnc(-n2[nH]c(C)cc2=O)[nH]c1=O [Compound 25]

# More lines, now with the values behind:
SMILES,Ligand efficiency,IC50 [µM],inhibition at 10 µM [%]
"Cc1cc(C)c(CSC(=N)N)c(C)c1CSC(=N)N [Compound 2, reference compound]",0.25,–,–
Cc1cc(=O)[nH]c(-n2nc(C)c(C)c2C)n1 [Compound 6],0.44,10 ± 0.4,–
CCc1c(C)nn(-c2nc(C)cc(=O)[nH]2)c1C [Compound 7],0.40,4.2 ± 0.4,–
Cc1cc(=O)[nH]c(-n2nc(C)c(-c3ccccc3)c2C)n1 [Compound 8],–,–,< 20
Cc1cc(=O)[nH]c(-n2nc(C)c(Cc3ccccc3)c2C)n1 [Compound 9],–,–,< 20
Cc1cc(=O)[nH]c(-n2nc(C(C)(C)C)cc2C)n1 [Compound 10],–,–,< 20
Cc1cc(=O)[nH]c(-n2nc(-c3ccccc3)cc2C)n1 [Compound 11],–,–,< 20
Cc1cc(=O)[nH]c(-n2nc3c(c2C)CCC3)n1 [Compound 12],–,–,< 20
Cc1cc(=O)[nH]c(-n2nc3c(c2C)COCC3)n1 [Compound 14],–,–,< 20

# Source: article PMC7649969, “Pyrazolyl-pyrimidones inhibit the function of human solute carrier protein SLC11A2 (hDMT1) by metal chelation” (RSC Medicinal Chemistry, 2020)
